Measured values reported in patent US20260232846A1, “FLUORESCENT PROBE COMPOUND AND COMPOSITE COMPRISING SAME” (KOREA RESEARCH INSTITUTE OF BIOSCIENCE AND BIOTECHNOLOGY, priority 2022, published 2026).

How the values were obtained:
MC3T3-E1 cells [1] = assay: Dephosphorylation of probe compounds on cell-cultured CDHA (fluorescence images, radiant efficiency); assay type: cell-based; conditions: CDHA specimen cultured with cells, treated with probe; diffused ALP hydrolysis increased over time in MC3T3-E1 cells
Experimental: In order to confirm the dephosphorylation of the fluorescent probe compounds by ALP or pH change on CDHA, three bare CDHA specimens and three CDHA specimens cultured with MC3T3-E1 cells and Raw264.7 cells were prepared, the results of examining fluorescence images obtained by treating, the three specimens, one of which was treated with the bone-forming activity marker-sensitive fluorescent probe compound of Synthetic Example 1, another of which was treated with the bone-resorbing activity marker-sensitive fluorescent probe compound of Synthetic Example 2, and the remaining one of which was treated with both the bone-forming activity marker-sensitive fluorescent probe compound and the bone-resorbing activity marker-sensitive fluorescent probe compound, were illustrated in FIG. 11, and the results of measuring fluorescence efficiency (radiant efficiency) in each of six specimens were illustrated in FIGS. 12A and 12B.

MC3T3-E1 cells [2] = system: MC3T3-E1 cells

Row | Compound | fluorescence signal (radiant efficiency) (MC3T3-E1 cells [1]) | cell proliferation (%) (Raw264.7 cells) | cell proliferation (%) (MC3T3-E1 cells [2])
1 | CC1(C)C(/C=C/C2=C3Oc4cc(OCc5ccc(OP(=O)(O)O)cc5)ccc4C=C3CCC2)=[N+](CCCCC(=O)NCCCC(O)(P(=O)(O)O)P(=O)(O)O)c2ccccc21 [compound 1-7] | high fluorescence signal |  | 
2 | calcium deficient hydroxyapatite [CDHA] |  | ~170 | ~170
